# ± gives the standard deviation of the averaged measurements.
# Experiments:
# Experiment in all cases: level (log10 ratio to DMSO vehicle control); higher = higher biomarker level / cell amount than vehicle control
# [1] = compound: C=C(C)C(=O)OCCC(F)(F)C(F)(F)C(F)(F)C(F)(F)C(F)(F)C(F)(F)F [6:2 Fluorotelomer methacrylate]; settings: in DMSO
# Experimental: (§1)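 BioMAP Diversity Plus panel of 12 human primary cell co-culture systems (3C, 4H, LPS, SAg, BT, BF4T, BE3C, CASM3C, HDF3CGF, KF3CT, MyoF, Mphg). Compounds were added 1 h before stimulation and left for 24 h (MyoF 48 h; BT 72 h for soluble read-outs or 6 d for IgG). Biomarkers were read by ELISA, cytotoxicity by SRB, PBMC viability and proliferation by Alamar Blue. Each well value was divided by the mean of 8 DMSO control wells on the same plate and log10 transformed; duplicate blinded samples were tested at 4 concentrations.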
# [2] = compound: C=CC(=O)OCC(F)(F)C(F)(F)C(F)(F)COC(=O)C=C [1H,1H,5H,5H-Perfluoro-1,5-pentanediol diacrylate]; settings: 6700 nM; in DMSO
# Experimental: as §1
# [3] = compound: COC(=O)C(F)(F)C(F)(F)OC(F)(C(F)(F)F)C(F)(F)OC(F)=C(F)F [Methyl perfluoro(3-(1-ethenyloxypropan-2-yloxy)propanoate)]; settings: in DMSO
# Experimental: as §1
# [4] = compound: FC(F)(F)C(F)(F)C(F)(F)C(F)(F)C(F)(F)C(F)(F)C(F)(F)I [1-Iodopentadecafluoroheptane]; settings: in DMSO
# Experimental: as §1
# [5] = compound: FC(F)(F)C(F)(F)C(F)(F)C(F)(F)C(F)(F)C(F)(F)CC1CO1 [3-(Perfluorohexyl)-1,2-epoxypropane]; settings: in DMSO
# Experimental: as §1
# [6] = compound: FC(F)(F)C(F)(F)C(F)(F)CC1CO1 [1H,1H-Heptafluorobutyl epoxide]; settings: in DMSO
# Experimental: as §1
# [7] = compound: FC(F)(F)C(F)(F)C(F)(F)CI [Heptafluorobutyl iodide]; settings: in DMSO
# Experimental: as §1
# [8] = compound: FC(F)(F)C(F)(F)CNCC(F)(F)C(F)(F)F [Bis(1H,1H-perfluoropropyl)amine]; settings: in DMSO
# Experimental: as §1
# [9] = compound: NC(=O)C(F)(F)C(F)(F)C(F)(F)C(F)(F)C(N)=O [Octafluoroadipamide]; settings: in DMSO
# Experimental: as §1
# [10] = compound: NC(=O)C(F)(F)C(F)(F)C(F)(F)C(F)(F)F [Nonafluoropentanamide]; settings: in DMSO
# Experimental: as §1
# [11] = compound: NC(=O)C(F)(F)C(F)(F)C(F)(F)C(F)F; settings: in DMSO
# Experimental: as §1
# [12] = compound: NS(=O)(=O)C(F)(F)C(F)(F)C(F)(F)C(F)(F)C(F)(F)C(F)(F)F [Perfluorohexanesulfonamide]; settings: in DMSO
# Experimental: as §1
# [13] = compound: O=C(O)C(F)(F)C(F)(F)C(F)(F)C(F)(F)C(F)(F)C(F)(F)C(F)(F)C(F)(F)C(F)(F)C(F)F [11-H-Perfluoroundecanoic acid]; settings: in DMSO
# Experimental: as §1
# [14] = compound: O=C(O)C=CC(F)(C(F)(F)F)C(F)(F)F [3-(Perfluoroisopropyl)-2-propenoic acid]; settings: in DMSO
# Experimental: as §1
# [15] = compound: O=S(=O)(Cl)C(F)(F)C(F)(F)C(F)(F)C(F)(F)C(F)(F)C(F)(F)C(F)(F)C(F)(F)F [Perfluoro-1-octanesulfonyl chloride]; settings: in DMSO
# Experimental: as §1
# [16] = compound: O=S(=O)(F)C(F)(F)C(F)(F)C(F)(F)C(F)(F)C(F)(F)C(F)(F)C(F)(F)C(F)(F)F [Perfluorooctanesulfonyl fluoride]; settings: in DMSO
# Experimental: as §1
# [17] = compound: O=S(=O)(O)C(F)(F)C(F)(F)C(F)(F)C(F)(F)C(F)(F)C(F)(F)C(F)(F)C(F)(F)C(F)(F)C(F)(F)F [Sodium perfluorodecanesulfonate]; settings: in DMSO
# Experimental: as §1
# [18] = compound: O=S(=O)(O)CCC(F)(F)C(F)(F)C(F)(F)C(F)(F)C(F)(F)C(F)(F)F [6:2 Fluorotelomer sulfonic acid]; settings: in DMSO
# Experimental: as §1
# [19] = compound: OCC(F)(F)C(F)(F)C(F)(F)CO [Hexafluoroamylene glycol]; settings: in DMSO
# Experimental: as §1
test system,measurement,setting,value
BF4T:IL-1alpha,level (log10),[1]; 6700 nM,-0.025 ± 0.041
same,level (log10),[1]; 20000 nM,-0.0245 ± 0.025
same,level (log10),[1]; 60000 nM,-0.0125 ± 0.018
same,level (log10),[2],0.0055 ± 0.036
same,level (log10),[3]; 6700 nM,-0.002 ± 0.0014
same,level (log10),[3]; 20000 nM,0.0105 ± 0.023
same,level (log10),[4]; 6700 nM,-0.0035 ± 0.0035
same,level (log10),[4]; 20000 nM,0.003 ± 0.0014
same,level (log10),[5]; 6700 nM,0.003 ± 0.0071
same,level (log10),[5]; 20000 nM,-0.0135 ± 0.005
same,level (log10),[5]; 60000 nM,0.013 ± 0.028
same,level (log10),[6]; 6700 nM,0.0165 ± 0.015
same,level (log10),[6]; 20000 nM,0.0095 ± 0.016
same,level (log10),[6]; 60000 nM,0.0355 ± 0.053
same,level (log10),[7]; 6700 nM,-0.017 ± 0.016
same,level (log10),[7]; 20000 nM,-0.0125 ± 0.0035
same,level (log10),[7]; 60000 nM,-0.015 ± 0.05
same,level (log10),[8]; 6700 nM,-0.007 ± 0.014
same,level (log10),[8]; 20000 nM,-0.0135 ± 0.015
same,level (log10),[8]; 60000 nM,0.0105 ± 0.049
same,level (log10),[9]; 6700 nM,0.007 ± 0.0071
same,level (log10),[9]; 20000 nM,-0.005 ± 0.0071
same,level (log10),[9]; 60000 nM,0.0215 ± 0.018
same,level (log10),[10]; 6700 nM,-0.017 ± 0.0042
same,level (log10),[10]; 20000 nM,-0.0035 ± 0.028
same,level (log10),[10]; 60000 nM,-0.003 ± 0.0014
same,level (log10),[11]; 6700 nM,-0.0175 ± 0.021
same,level (log10),[11]; 20000 nM,-0.004 ± 0.0028
same,level (log10),[11]; 60000 nM,-0.002 ± 0.0057
same,level (log10),[12]; 6700 nM,-0.006 ± 0.0042
same,level (log10),[12]; 20000 nM,-0.008 ± 0.017
same,level (log10),[12]; 60000 nM,-0.0675 ± 0.016
same,level (log10),[13]; 6700 nM,0.025 ± 0.027
same,level (log10),[13]; 20000 nM,-0.0955 ± 0.026
same,level (log10),[14]; 6700 nM,-0.002 ± 0.021
same,level (log10),[14]; 20000 nM,0.0065 ± 0.011
same,level (log10),[14]; 60000 nM,0.012 ± 0.0057
same,level (log10),[15]; 6700 nM,-0.0015 ± 0.0092
same,level (log10),[15]; 20000 nM,-0.0045 ± 0.005
same,level (log10),[15]; 60000 nM,-0.0925 ± 0.005
same,level (log10),[16]; 6700 nM,-0.0005 ± 0.0064
same,level (log10),[16]; 20000 nM,-0.0015 ± 0.00071
same,level (log10),[16]; 60000 nM,0.0155 ± 0.021
same,level (log10),[17]; 1500 nM,0.037 ± 0.034
same,level (log10),[17]; 4400 nM,-0.0165 ± 0.033
same,level (log10),[17]; 13000 nM,0.0095 ± 0.011
same,level (log10),[17]; 40000 nM,-0.0155 ± 0.0064
same,level (log10),[18]; 6700 nM,0.006 ± 0.0085
same,level (log10),[18]; 20000 nM,0.0005 ± 0.0092
same,level (log10),[18]; 60000 nM,0.023 ± 0.018
same,level (log10),[19]; 6700 nM,-0.001 ± 0.014
same,level (log10),[19]; 20000 nM,-0.0175 ± 0.0035
same,level (log10),[19]; 60000 nM,0.0075 ± 0.029
BF4T:Keratin 8/18,level (log10),[1]; 6700 nM,-0.0305 ± 0.019
same,level (log10),[1]; 20000 nM,-0.0345 ± 0.044
same,level (log10),[1]; 60000 nM,-0.054 ± 0.013
same,level (log10),[2],0.0095 ± 0.0092
same,level (log10),[3]; 6700 nM,0.029 ± 0.02
same,level (log10),[3]; 20000 nM,0.015 ± 0.042
same,level (log10),[4]; 6700 nM,-0.031 ± 0.021
same,level (log10),[4]; 20000 nM,-0.054 ± 0.0028
same,level (log10),[5]; 6700 nM,-0.0045 ± 0.03
same,level (log10),[5]; 20000 nM,-0.014 ± 0.011
same,level (log10),[5]; 60000 nM,0.015 ± 0.037
same,level (log10),[6]; 6700 nM,-0.001 ± 0.011
same,level (log10),[6]; 20000 nM,-0.0025 ± 0.0064
same,level (log10),[6]; 60000 nM,-0.0235 ± 0.0078
same,level (log10),[7]; 6700 nM,-0.022 ± 0.014
same,level (log10),[7]; 20000 nM,-0.0265 ± 0.0035
same,level (log10),[7]; 60000 nM,-0.0045 ± 0.039
same,level (log10),[8]; 6700 nM,-0.0075 ± 0.0064
same,level (log10),[8]; 20000 nM,-0.019 ± 0.013
same,level (log10),[8]; 60000 nM,0.015 ± 0.03
same,level (log10),[9]; 6700 nM,-0.0025 ± 0.0092
same,level (log10),[9]; 20000 nM,-0.004 ± 0.0014
same,level (log10),[9]; 60000 nM,0.017 ± 0.033
same,level (log10),[10]; 6700 nM,-0.008 ± 0.013
same,level (log10),[10]; 20000 nM,-0.0145 ± 0.015
same,level (log10),[10]; 60000 nM,-0.0305 ± 0.042
same,level (log10),[11]; 6700 nM,0.004 ± 0.042
same,level (log10),[11]; 20000 nM,0.005 ± 0.011
same,level (log10),[11]; 60000 nM,0.0135 ± 0.026
same,level (log10),[12]; 6700 nM,-0.01 ± 0.033
same,level (log10),[12]; 20000 nM,-0.019 ± 0.017
same,level (log10),[12]; 60000 nM,-0.065 ± 0.067
same,level (log10),[13]; 6700 nM,-0.0025 ± 0.011
same,level (log10),[13]; 20000 nM,-0.062 ± 0.0085
same,level (log10),[14]; 6700 nM,-0.018 ± 0.028
same,level (log10),[14]; 20000 nM,-0.0135 ± 0.0021
same,level (log10),[14]; 60000 nM,-0.0035 ± 0.044
same,level (log10),[15]; 6700 nM,0.0075 ± 0.00071
same,level (log10),[15]; 20000 nM,0.0125 ± 0.00071
same,level (log10),[15]; 60000 nM,-0.0805 ± 0.035
same,level (log10),[16]; 6700 nM,0.0285 ± 0.033
same,level (log10),[16]; 20000 nM,0.003 ± 0.016
same,level (log10),[16]; 60000 nM,0.0335 ± 0.0092
same,level (log10),[17]; 1500 nM,0.02 ± 0.0071
same,level (log10),[17]; 4400 nM,0.005 ± 0.023
same,level (log10),[17]; 13000 nM,-0.0175 ± 0.015
same,level (log10),[17]; 40000 nM,-0.044 ± 0.023
same,level (log10),[18]; 6700 nM,0.0075 ± 0.019
same,level (log10),[18]; 20000 nM,-0.0065 ± 0.016
same,level (log10),[18]; 60000 nM,0.0045 ± 0.011
same,level (log10),[19]; 6700 nM,0.0045 ± 0.018
same,level (log10),[19]; 20000 nM,-0.0075 ± 0.0092
same,level (log10),[19]; 60000 nM,0.0125 ± 0.013

# — the supplement of paper PMC10331698
